Data as given in patent US20260216158A1, “OCULAR IMPLANT CONTAINING A TYROSINE KINASE INHIBITOR” (OCULAR THERAPEUTIX, INC., priority 2023, published 2026).
Values after ≈ are worked out from the molar mass of the structure shown. Values joined by “and” are separate entries in the source; they are usually repeats but may differ in a detail not shown here. Equal entries are not always repeated.

How the values were obtained:
[1] = Solubility of axitinib free base polymorphs (SAB-I, Polymorph IV) in PBS (Example 6.1); conditions: for Solubility in PBS, Day 1 / Solubility in PBS, Day2 / Solubility in PBS, Day 5 / Solubility in PBS, Day 6 / Solubility in PBS, Day 8 / Equilibrium solubility in PBS, Average (Days 5-8): 37° C., pH 7.2 to 7.4; for Solubility in PBS, Day2: day 2; for Equilibrium solubility in PBS, Average (Days 5-8): average of days 5, 6 and 8, UPLC
[2] = Solubility of axitinib prodrugs in PBS, 24 h at 22° C., HPLC (Example 6.2); format: physicochemical; conditions: for Mean Solubility / solubility at 24 h: PBS pH 7.2 to 7.4, 24 hours incubation at 22° C.; for solubility at 24 h / Obtained Conc. (replicate): PBS; for solubility at 24 h: 22 °C, pH 7.2, aqueous buffer, thermodynamic from solid; for Obtained Conc. (replicate): 24 h at 22° C., after dilution factor, replicates R1, R2
Experimental: • PBS, pH 7.2 • 24 h at 22° C. with continuous shaking • Solubility of test item was determined by HPLC analysis with calibration curve

[3] = as above; format: physicochemical; conditions: pH 7.4, replicates R1, R2
[4] = Stability of axitinib polymorph IV in an implant throughout 6 months (Example 11); format: physicochemical
[5] = system: VEGF-induced retinal vascular leakage; experiment: VEGF challenge study, leakage score over time (Example 14); format: in vivo, Dutch Belted rabbit; conditions: fluorescein angiography, 0 no leakage, 4 no inhibition of leakage
retinal vessel leakage = experiment: In vivo VEGF challenge study, leakage by fluorescein angiography; conditions: rabbit VEGF challenge, scale 0 to 4
Text: The scoring criteria is based on Table 37B.

physchem [6] = conditions: PBS, 37 °C, pH 7.4, aqueous buffer, thermodynamic from solid
physchem [7] = conditions: aqueous with cosolvent or surfactant or cyclodextrin
[8] = axitinib: Rugo et al. 2005; ranibizumab, aflibercept: in the human eye; cited from earlier work
[9] = Stability studies of axitinib co-crystals (Example 4.4); format: physicochemical
Text: The results are also depicted in Table 8.

[10] = PBS pH 7.4, 37° C.
Solubility of axitinib = format: physicochemical; conditions: PBS, 37 °C, pH 7.2, aqueous buffer, thermodynamic from solid; read-out: Solubility in PBS pH 7.2-7.4 (37° C., 5 days)
[11] = NHP study: bioanalysis of axitinib in plasma; format: in vivo, Cynomolgus monkeys; conditions: at sacrifice time points, LLOQ 0.100 ng/mL
[12] = cited from earlier work
[13] = listed as Polymorph IV micronized

CNC(=O)c1ccccc1Sc1ccc2c(/C=C/c3ccccn3)n[nH]c2c1 [SAB-I super-micronized]
Solubility in PBS, Day 1 [1]: 0.246 µg/mL (≈ 0.637 µM)
Solubility in PBS, Day2 [1]: 0.277 µg/mL (≈ 0.717 µM)
Solubility in PBS, Day 5 [1]: 0.256 µg/mL (≈ 0.662 µM)
Solubility in PBS, Day 6 [1]: 0.253 µg/mL (≈ 0.655 µM)
Solubility in PBS, Day 8 [1]: 0.247 µg/mL (≈ 0.639 µM)

CNC(=O)c1ccccc1Sc1ccc2c(/C=C/c3ccccn3)nn(COC(=O)CCOC)c2c1 [Axitinib N-m(PEG)1-oxymethyl Prodrug, 3-Methoxy-propionic acid 6-(2-methylcarbamoyl-phenylsulfanyl)-3-((E)-2-pyridin-2-yl-vinyl)-indazol-1-ylmethyl ester]
Mean Solubility [2]: Not soluble
Conc. (replicate) [3]: BLOQ (“BLOQ” means “below limit of quantification”. i.e., <0.781 μg/mL)

CNC(=O)c1ccccc1Sc1ccc2c(/C=C/c3ccccn3)n[nH]c2c1 [Polymorph IV, axitinib]
chemical and physical stability in an implant [4]: chemically and physically stable

Bevacizumab: Avastin (bevacizumab), comparator in the VEGF challenge study
Leakage Scores (average) ([5]; Day 7): 0.0
Leakage Scores (average) ([5]; Day 17): 0.0
Leakage Scores (average) ([5]; Day 31): 0.0
Leakage Scores (average) ([5]; Day 45): 1.0
Leakage Scores (average) ([5]; Day 59): 3.1
Leakage Scores (average) ([5]; Day 73): 3.7
leakage score (mean) (retinal vessel leakage; after 60 days, untreated eyes 3.2): 3.1
leakage score (mean) (retinal vessel leakage; going further beyond 60 days): 3.7
leakage score (mean) (retinal vessel leakage; up to 31 days): 0.0

CNC(=O)c1ccccc1Sc1ccc2c(/C=C/c3ccccn3)n[nH]c2c1 [SAB-I micronized]
Solubility in PBS, Day 1 [1]: 0.236 µg/mL (≈ 0.611 µM)
Solubility in PBS, Day2 [1]: 0.265 µg/mL (≈ 0.686 µM)
Solubility in PBS, Day 5 [1]: 0.216 µg/mL (≈ 0.559 µM)
Solubility in PBS, Day 6 [1]: 0.226 µg/mL (≈ 0.585 µM)
Solubility in PBS, Day 8 [1]: 0.237 µg/mL (≈ 0.613 µM)

CNC(=O)c1ccccc1Sc1ccc2c(/C=C/c3ccccn3)n[nH]c2c1 [axitinib polymorph SAB-I]
solubility thermodynamic at 5 days (physchem [6]): ~0.223 µg/mL (≈ 0.577 µM)
solubility (physchem [7]; solubility in 25%/75% (v/v) ethanol/water): 13.4 µg/mL (≈ 34.7 µM)
solubility in PBS ([1]; PBS pH 7.2 to 7.4, 37° C., after five days of incubation): less than 0.3 μg/mL

CNC(=O)c1ccccc1Sc1ccc2c(/C=C/c3ccccn3)n[nH]c2c1 [SAB-I non-micronized]
Solubility in PBS, Day 1 [1]: 0.153 µg/mL (≈ 0.396 µM)
Solubility in PBS, Day2 [1]: 0.228 µg/mL (≈ 0.59 µM)
Solubility in PBS, Day 5 [1]: 0.190 µg/mL (≈ 0.492 µM)
Solubility in PBS, Day 6 [1]: 0.194 µg/mL (≈ 0.502 µM)
Solubility in PBS, Day 8 [1]: 0.188 µg/mL (≈ 0.486 µM)

CNC(=O)c1ccccc1Sc1ccc2c(/C=C/c3ccccn3)nn(COC(=O)CCOCCOCCOCCOC)c2c1 [Axitinib N-m(PEG)4-oxymethyl Prodrug]
solubility at 24 h [2]: 99.4 µg/mL (≈ 157 µM)
Obtained Conc. (replicate) [2]: 100.16 µg/mL and 98.58 µg/mL

ranibizumab: anti-VEGF agent, ranibizumab injection by Genentech
clearance half-life (t1/2) [8]: several days

CNC(=O)c1ccccc1Sc1ccc2c(/C=C/c3ccccn3)nn(COC(=O)CCOCCOC)c2c1 [Axitinib N-m(PEG)2-oxymethyl Prodrug, 3-(2-Methoxy-ethoxy)-propionic acid 6-(2-methylcarbamoyl-phenylsulfanyl)-3-((E)-2-pyridin-2-yl-vinyl)-indazol-1-ylmethylester]
solubility at 24 h [2]: 1.1 µg/mL (≈ 2.01 µM)
Conc. (replicate) [3]: 1.112 µg/mL and 1.086 µg/mL

Citric Acid
HPLC Purity after stability studies 25° C./60% RH [9]: 90.78
HPLC Purity after stability studies 40° C./75% RH [9]: 93.23
HPLC Purity after stability studies 80° C. [9]: 86.88
Stability-3 days slurry in H2O (25° C.) and 4 days drying at 32° C./0% RH, HPLC [9]: 96.24

O=C(O)CCCC(=O)O [Glutaric acid]
HPLC Purity after stability studies 25° C./60% RH [9]: 90.81
HPLC Purity after stability studies 40° C./75% RH [9]: 99.31
HPLC Purity after stability studies 80° C. [9]: 99.44
Stability-3 days slurry in H2O (25° C.) and 4 days drying at 32° C./0% RH, HPLC [9]: 99.80
Thermodynamic solubility in PBS, pH 7.4 at 37° C., 2 hours ([10]; 2 hours): LOD
Thermodynamic solubility in PBS, pH 7.4 at 37° C., 4 hours ([10]; 4 hours): LOD
Thermodynamic solubility in PBS, pH 7.4 at 37° C., 24 hours ([10]; 24 hours): LOD

CNC(=O)c1ccccc1Sc1ccc2c(/C=C/c3ccccn3)n[nH]c2c1 [SAB-I, axitinib]
solubility at 5 days (Solubility of axitinib): 0.2 µg/mL (≈ 0.517 µM)

CNC(=O)c1ccccc1Sc1ccc2c(/C=C/c3ccccn3)nn(COC(=O)CCC(=O)O)c2c1 [Axitinib N-Succinoyloxymethyl Prodrug]
Mean Solubility [2]: 217.44 µg/mL
solubility at 24 h [2]: 217 µg/mL (≈ 421 µM)
Obtained Conc. (replicate) [2]: 222.06 µg/mL and 212.82 µg/mL

CNC(=O)c1ccccc1Sc1ccc2c(/C=C/c3ccccn3)nn(COC(=O)CCOCCOCCOC)c2c1 [Axitinib N-m(PEG)3-oxymethyl Prodrug, 3-[2-(2-Methoxy-ethoxy)-ethoxy]-propionic acid 6-(2-methylcarbamoyl-phenylsulfanyl)-3-((E)-2-pyridin-2-yl-vinyl)-indazol-1-ylmethyl ester]
solubility at 24 h [2]: 6.16 µg/mL (≈ 10.4 µM)
Conc. (replicate) [3]: 6.179 µg/mL and 6.146 µg/mL

O=C(O)[C@H](O)[C@@H](O)C(=O)O [(+)-L-Tartaric acid]
HPLC Purity after stability studies 25° C./60% RH [9]: 96.66
HPLC Purity after stability studies 40° C./75% RH [9]: 96.24
HPLC Purity after stability studies 80° C. [9]: 93.24
Stability-3 days slurry in H2O (25° C.) and 4 days drying at 32° C./0% RH, HPLC [9]: 97.50

CNC(=O)c1ccccc1Sc1ccc2c(/C=C/c3ccccn3)n[nH]c2c1 [axitinib polymorph IV]
Equilibrium solubility in PBS, Average (Days 5-8) [1]: about 0.435 μg/mL
Equilibrium solubility in PBS, Average (Days 5-8) [1, 13]: 0.435 µg/mL
Solubility in PBS, Day 1 [1, 13]: 0.678 µg/mL (≈ 1.75 µM)
Solubility in PBS, Day2 [1, 13]: 0.479 µg/mL (≈ 1.24 µM)
Solubility in PBS, Day 5 [1, 13]: 0.413 µg/mL (≈ 1.07 µM)
Solubility in PBS, Day 6 [1, 13]: 0.443 µg/mL (≈ 1.15 µM)
Solubility in PBS, Day 8 [1, 13]: 0.449 µg/mL (≈ 1.16 µM)

aflibercept: anti-VEGF agent, aflibercept intravitreal injection by Regeneron
clearance half-life (t1/2) [8]: several days

CNC(=O)c1ccccc1Sc1ccc2c(/C=C/c3ccccn3)n[nH]c2c1 [axitinib, N-methyl-2-[3-((E)-2-pyridin-2-yl-vinyl)-1H-indazol-6-ylsulfanyl]-benzamide]
Axitinib concentrations in plasma [11]: No measurable amount of axitinib was detected
vitreous half-life [12]: 2 h
clearance half-life (t1/2) [8]: a few hours
solubility (physchem [7]; mean solubility value in 25%/75% (v/v) ethanol/water): 18.3 µg/mL (≈ 47.4 µM)

Fumaric Acid
HPLC Purity after stability studies 25° C./60% RH [9]: 99.60
HPLC Purity after stability studies 40° C./75% RH [9]: 99.64
HPLC Purity after stability studies 80° C. [9]: 99.47
Stability-3 days slurry in H2O (25° C.) and 4 days drying at 32° C./0% RH, HPLC [9]: 99.76
